Laboratory results reported in PubChem BioAssay AID2060327 (Molecular Pharmacology Branch, DTP, NCI, 2025).
“And” between values parts separate entries of the source, which are not always exact repeats. Equal values may be shown once.

Test system: PC-3 multi-cell spheroids, viability
Experiment: Anticancer human tumor PC-3 cell line growth inhibition [IpAb];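 further: spheroids exposed to compounds for 7 days before readout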;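 on viability, T/C: 100% = DMSO vehicle control wells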
Settings: for viability, T/C: stronger effect = lower value
In short: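 Spheroids of 60% malignant cells, 25% HUVEC and 15% MSC were exposed to targeted agents combined with ipatasertib or abemaciclib. Doses started at or near clinical Cmax (10 microM when unknown) and fell in half-log steps.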

[1] = curve of first compound, second compound 0.1 µM
[2] = curve of first compound, second compound 0.316 µM
[3] = curve of first compound, second compound 1 µM
[4] = curve of first compound, second compound 3.16 µM
[5] = curve of first compound, second compound 10 µM
[6] = second compound 0.1 µM, first compound 0.0316 µM
[7] = second compound 0.1 µM, first compound 0.1 µM
[8] = second compound 0.1 µM, first compound 0.316 µM
[9] = second compound 0.1 µM, first compound 1 µM
[10] = second compound 0.1 µM, first compound 3.16 µM
[11] = second compound 0.1 µM, first compound 10 µM
[12] = second compound 0.316 µM, first compound 0.0316 µM
[13] = second compound 0.316 µM, first compound 0.1 µM
[14] = second compound 0.316 µM, first compound 0.316 µM
[15] = second compound 0.316 µM, first compound 1 µM
[16] = second compound 0.316 µM, first compound 3.16 µM
[17] = second compound 0.316 µM, first compound 10 µM
[18] = second compound 1 µM, first compound 0.0316 µM
[19] = second compound 1 µM, first compound 0.1 µM
[20] = second compound 1 µM, first compound 0.316 µM
[21] = second compound 1 µM, first compound 1 µM
[22] = second compound 1 µM, first compound 3.16 µM
[23] = second compound 1 µM, first compound 10 µM
[24] = second compound 3.16 µM, first compound 0.0316 µM
[25] = second compound 3.16 µM, first compound 0.1 µM
[26] = second compound 3.16 µM, first compound 0.316 µM
[27] = second compound 3.16 µM, first compound 1 µM
[28] = second compound 3.16 µM, first compound 3.16 µM
[29] = second compound 3.16 µM, first compound 10 µM
[30] = second compound 10 µM, first compound 0.0316 µM
[31] = second compound 10 µM, first compound 0.1 µM
[32] = second compound 10 µM, first compound 0.316 µM
[33] = second compound 10 µM, first compound 1 µM
[34] = second compound 10 µM, first compound 3.16 µM
[35] = second compound 10 µM, first compound 10 µM
[36] = curve of first compound, second compound 0.01 µM
[37] = curve of first compound, second compound 0.0316 µM

SMILES: CCCS(=O)(=O)Nc1ccc(F)c(C(=O)c2c[nH]c3ncc(-c4ccc(Cl)cc4)cc23)c1F + CC(C)NCC(C(=O)N1CCN(c2ncnc3c2C(C)CC3O)CC1)c1ccc(Cl)cc1
- IC50 [1]: 9890 nM
- IC50 [2]: < 31.6 nM
- IC50 [3]: < 31.6 nM
- IC50 [4]: < 31.6 nM
- IC50 [5]: < 31.6 nM
- viability, T/C [6]: 81.9%
- viability, T/C [7]: 87.5%
- viability, T/C [8]: 95.2%
- viability, T/C [9]: 94.1%
- viability, T/C [10]: 83.8%
- viability, T/C [11]: 49.3%
- viability, T/C [12]: 45.2%
- viability, T/C [13]: 43.8%
- viability, T/C [14]: 46.4%
- viability, T/C [15]: 52.7%
- viability, T/C [16]: 50.3%
- viability, T/C [17]: 27%
- viability, T/C [18]: 25%
- viability, T/C [19]: 22.6%
- viability, T/C [20]: 27%
- viability, T/C [21]: 28.4%
- viability, T/C [22]: 26.3%
- viability, T/C [23]: 15.1%
- viability, T/C [24]: 13.6%
- viability, T/C [25]: 15.6%
- viability, T/C [26]: 16.8%
- viability, T/C [27]: 17.2%
- viability, T/C [28]: 14.5%
- viability, T/C [29]: 10.5%
- viability, T/C [30]: 12.8%
- viability, T/C [31]: 13%
- viability, T/C [32]: 15%
- viability, T/C [33]: 14.9%
- viability, T/C [34]: 12.6%
- viability, T/C [35]: 7.8%

SMILES: Cn1nccc1Nc1nccc(-c2ccn(C(CO)c3ccc(Cl)c(F)c3)c(=O)c2)n1 (centres undefined) + CC(C)NCC(C(=O)N1CCN(c2ncnc3c2C(C)CC3O)CC1)c1ccc(Cl)cc1
- IC50 [1]: > 10000 nM
- IC50 [2]: < 31.6 nM
- IC50 [3]: < 31.6 nM
- IC50 [4]: < 31.6 nM
- IC50 [5]: < 31.6 nM
- viability, T/C [6]: 76.7%
- viability, T/C [7]: 77.3%
- viability, T/C [8]: 83.1%
- viability, T/C [9]: 105%
- viability, T/C [10]: 127%
- viability, T/C [11]: 104%
- viability, T/C [12]: 42.8%
- viability, T/C [13]: 43.8%
- viability, T/C [14]: 41.9%
- viability, T/C [15]: 48%
- viability, T/C [16]: 88.1%
- viability, T/C [17]: 76.9%
- viability, T/C [18]: 20.4%
- viability, T/C [19]: 24.2%
- viability, T/C [20]: 27.2%
- viability, T/C [21]: 34.5%
- viability, T/C [22]: 59.1%
- viability, T/C [23]: 34.3%
- viability, T/C [24]: 14.2%
- viability, T/C [25]: 15.4%
- viability, T/C [26]: 15.1%
- viability, T/C [27]: 19.7%
- viability, T/C [28]: 23.4%
- viability, T/C [29]: 13.8%
- viability, T/C [30]: 12.7%
- viability, T/C [31]: 13.3%
- viability, T/C [32]: 12.2%
- viability, T/C [33]: 14.3%
- viability, T/C [34]: 17.4%
- viability, T/C [35]: 10.8%

SMILES: COc1c(OCCCN2CCOCC2)ccc2c3n(c(=NC(=O)c4cnc(N)nc4)nc12)CCN3 + CCN1CCN(Cc2ccc(Nc3ncc(F)c(-c4cc(F)c5nc(C)n(C(C)C)c5c4)n3)nc2)CC1
- IC50 [36]: 94.5 nM
- IC50 [37]: 90.8 nM
- IC50 [1]: 86.5 nM
- IC50 [2]: 78.3 nM
- IC50 [3]: 80.6 nM
- viability, T/C (second compound 0.01 µM, first compound 0.00316 µM): 89.5%
- viability, T/C (second compound 0.01 µM, first compound 0.01 µM): 99.3%
- viability, T/C (second compound 0.01 µM, first compound 0.0316 µM): 140%
- viability, T/C (second compound 0.01 µM, first compound 0.1 µM): 47%
- viability, T/C (second compound 0.01 µM, first compound 0.316 µM): 13.3%
- viability, T/C (second compound 0.01 µM, first compound 1 µM): 8.39%
- viability, T/C (second compound 0.0316 µM, first compound 0.00316 µM): 109%
- viability, T/C (second compound 0.0316 µM, first compound 0.01 µM): 121%
- viability, T/C (second compound 0.0316 µM, first compound 0.0316 µM): 142%
- viability, T/C (second compound 0.0316 µM, first compound 0.1 µM): 43.2%
- viability, T/C (second compound 0.0316 µM, first compound 0.316 µM): 11%
- viability, T/C (second compound 0.0316 µM, first compound 1 µM): 8.82%
- viability, T/C (second compound 0.1 µM, first compound 0.00316 µM): 156%
- viability, T/C (second compound 0.1 µM, first compound 0.01 µM): 161%
- viability, T/C [6]: 140%
- viability, T/C [7]: 37%
- viability, T/C [8]: 12.8%
- viability, T/C [9]: 9.54%
- viability, T/C (second compound 0.316 µM, first compound 0.00316 µM): 174%
- viability, T/C (second compound 0.316 µM, first compound 0.01 µM): 170%
- viability, T/C [12]: 111%
- viability, T/C [13]: 34.5%
- viability, T/C [14]: 14.8%
- viability, T/C [15]: 13.3%
- viability, T/C (second compound 1 µM, first compound 0.00316 µM): 173%
- viability, T/C (second compound 1 µM, first compound 0.01 µM): 171%
- viability, T/C [18]: 104%
- viability, T/C [19]: 40.4%
- viability, T/C [20]: 25%
- viability, T/C [21]: 28.6%

SMILES: CC(C)(C)c1cnc(CSc2cnc(NC(=O)C3CCNCC3)s2)o1 + CCN1CCN(Cc2ccc(Nc3ncc(F)c(-c4cc(F)c5nc(C)n(C(C)C)c5c4)n3)nc2)CC1
- IC50 [36]: 175 nM
- IC50 [37]: 146 nM
- IC50 [1]: 98.5 nM
- IC50 [2]: 38.1 nM
- IC50 [3]: < 9.49 nM
- viability, T/C (second compound 0.01 µM, first compound 0.00949 µM): 75.9%
- viability, T/C (second compound 0.01 µM, first compound 0.03 µM): 103%
- viability, T/C (second compound 0.01 µM, first compound 0.0949 µM): 113%
- viability, T/C (second compound 0.01 µM, first compound 0.3 µM): 7.99%
- viability, T/C (second compound 0.01 µM, first compound 0.949 µM): 6.01%
- viability, T/C (second compound 0.01 µM, first compound 3 µM): 7.44%
- viability, T/C (second compound 0.0316 µM, first compound 0.00949 µM): 63.5%
- viability, T/C (second compound 0.0316 µM, first compound 0.03 µM): 71.5%
- viability, T/C (second compound 0.0316 µM, first compound 0.0949 µM): 94.4%
- viability, T/C (second compound 0.0316 µM, first compound 0.3 µM): 4.86%
- viability, T/C (second compound 0.0316 µM, first compound 0.949 µM): 4.92%
- viability, T/C (second compound 0.0316 µM, first compound 3 µM): 7.51%
- viability, T/C (second compound 0.1 µM, first compound 0.00949 µM): 69.1%
- viability, T/C (second compound 0.1 µM, first compound 0.03 µM): 73.4%
- viability, T/C (second compound 0.1 µM, first compound 0.0949 µM): 51.5%
- viability, T/C (second compound 0.1 µM, first compound 0.3 µM): 3.51%
- viability, T/C (second compound 0.1 µM, first compound 0.949 µM): 6%
- viability, T/C (second compound 0.1 µM, first compound 3 µM): 7.79%
- viability, T/C (second compound 0.316 µM, first compound 0.00949 µM): 55.9%
- viability, T/C (second compound 0.316 µM, first compound 0.03 µM): 54.3%
- viability, T/C (second compound 0.316 µM, first compound 0.0949 µM): 30.5%
- viability, T/C (second compound 0.316 µM, first compound 0.3 µM): 4.21%
- viability, T/C (second compound 0.316 µM, first compound 0.949 µM): 5.66%
- viability, T/C (second compound 0.316 µM, first compound 3 µM): 7.81%
- viability, T/C (second compound 1 µM, first compound 0.00949 µM): 44.7%
- viability, T/C (second compound 1 µM, first compound 0.03 µM): 36.5%
- viability, T/C (second compound 1 µM, first compound 0.0949 µM): 22.7%
- viability, T/C (second compound 1 µM, first compound 0.3 µM): 4.97%
- viability, T/C (second compound 1 µM, first compound 0.949 µM): 7.15%
- viability, T/C (second compound 1 µM, first compound 3 µM): 8.41%

SMILES: Cn1ncnc1[C@H]1c2n[nH]c(=O)c3cc(F)cc(c23)N[C@@H]1c1ccc(F)cc1
- viability, T/C (compound 0.000316 µM): 96.7% and 95.8%
- viability, T/C (compound 0.001 µM): 87.8% and 95.3%
- viability, T/C (compound 0.00316 µM): 74.8% and 63%
- viability, T/C (compound 0.01 µM): 53.3% and 58.5%
- viability, T/C (compound 0.0316 µM): 43.7% and 50.4%
- viability, T/C (compound 0.1 µM): 43.8% and 39%
- IC50 (curve of compound): 16.3 nM and 19.1 nM

SMILES: CC(=O)c1c(C)c2cnc(Nc3ccc(N4CCNCC4)cn3)nc2n(C2CCCC2)c1=O
- viability, T/C (compound 0.000949 µM): 95.8% and 105%
- viability, T/C (compound 0.003 µM): 96.3% and 95.7%
- viability, T/C (compound 0.00949 µM): 88.9% and 83.5%
- viability, T/C (compound 0.03 µM): 63.2% and 72.3%
- viability, T/C (compound 0.0949 µM): 56.1% and 64.3%
- viability, T/C (compound 0.3 µM): 62.9% and 61.2%
- IC50 (curve of compound): > 300 nM
